# According to US5646180A (priority 1995, dated 1997):
# Read-outs that look alike come from different tables or passages of the source.
# Experiments:
# [1] = cited from earlier work
# HIV-2 protease = experiment: ligand for / inhibition of HIV-2 protease; type: biochemical
# HIV-1 virus = experiment: HIV-1 infection of immortalized human T cells, assay of extracellular p24 antigen; type: cell-based; details: over a period of days
# Text: Accordingly, the compound is capable of targeting and inhibiting late stage events in HIV replication, i.e., the processing of the viral polyproteins by HIV encoded proteases. […] Because aspartyl protease is essential for the production of mature virions, inhibition of that processing effectively blocks the spread of virus by inhibiting the production of infectious virions, particularly from chronically infected cells. […] Other anti-viral assays have confirmed the potency of this compound.
# aqueous solubility = type: physicochemical; details: water
# HIV-1 protease = experiment: ligand for / inhibition of HIV-1 protease; type: biochemical
# oral availability = type: in vivo; details: oral administration, mammals
# HIV = type: cell-based
# [2] = Text: […]. The potential of this compound to be delivered at doses far exceeding its effective antiviral level is advantageous in slowing or preventing the possibility of resistant variants developing.
# [3] = prior-art HIV drugs, background statement, nucleosides compared with AZT
smiles,measurement,setting,value
CC(C)c1nc(CN(C)C(=O)N[C@H](C(=O)N[C@@H](Cc2ccccc2)C[C@H](O)[C@H](Cc2ccccc2)NC(=O)OCc2cncs2)C(C)C)cs1 [ABT 538],CNS distribution / CNS penetration (in words),[1]; in vivo,very limited CNS penetration
CC(C)CN(CC(O)C(Cc1ccccc1)NC(=O)OC1CCOC1)S(=O)(=O)c1ccc(N)cc1 (stereo not shown) [Compound I],ligand for HIV-2 protease (in words),HIV-2 protease,excellent ligand
same,inhibition of the ability of HIV-1 to infect immortalized human T cells (in words),HIV-1 virus,inhibits the ability of the HIV-1 virus to infect immortalized human T cells
same,solubility,aqueous solubility,≥ 100 µg/mL
same,ligand for HIV-1 protease (in words),HIV-1 protease,excellent ligand
same,oral availability (in words),oral availability,surprisingly impressive oral availability
same,combination effect in preventing the replication of HIV in human T cells (in words),HIV,acts in an additive or synergistical manner
same,therapeutic index (in words),[2],impressively high therapeutic index
CC(C)(C)NC(=O)[C@@H]1CN(Cc2cccnc2)CCN1C[C@@H](O)C[C@@H](Cc1ccccc1)C(=O)N[C@H]1c2ccccc2C[C@H]1O [Compound L-535524],CNS distribution / CNS penetration (in words),[1]; [3],about the same distribution
Cc1cn([C@H]2C=C[C@@H](CO)O2)c(=O)[nH]c1=O [d4T],CNS distribution / CNS penetration (in words),[1]; [3],even worse distribution profiles in the CNS
